Broadly, the MIC is the least concentration at which growth counts as inhibited.

Values after ≈ are worked out from the molar mass of the structure shown. Where a name gives a salt, the structure may show the parent alone. Read-outs that look alike come from different tables or passages of the source.

Type in all cases: cell-based
One test deals with Fusarium. Kind of test: Minimum Inhibitory Concentration (MIC), Fusarium. Conditions: 168 h, Sabouraud Dextrose Broth, 28° C., seven days (molds). The protocol:
(§1) Determination of the Minimum Inhibitory Concentrations (MIC's) for the Compounds Prepared in Part A
(§2) Solutions of the experimental compounds in dimethyl sulfoxide and an aqueous solution of sodium pyrithione were serially diluted in nutrient broth (Tryptic Soy Broth for bacteria and Sabouraud Dextrose Broth for fungi) in microtiter plates. Equal volumes of a broth supension of bacteria (10^6 CFU/ml) or fungi (10^5 cells or spores/ml) were added to each dilution, and the plates were incubated at 37° C. (bacteria and yeast) or 28° C. (molds). Bacteria, yeast and molds were incubated two, five and seven days respectively before determining the highest inhibitory dilution.

The next test has as its system S. aureus. Kind of test: Minimum Inhibitory Concentration (MIC), S. aureus. As to conditions: Staphylococcus aureus, 48 h, Tryptic Soy Broth, 37° C., two days. The protocol:
as §1, §2

The subject of another test is Aureobasidium pullulans. Nature of the test: Minimum Inhibitory Concentration (MIC), Aureobasidium pullulans. The protocol: as §1, §2
The test system of a further test is Aspergillins niger. Kind of test: Minimum Inhibitory Concentration (MIC), Aspergillins niger. As to conditions: 168 h. The protocol:
as §1, §2

The test system of another test is E. Coli. Nature of the test: Minimum Inhibitory Concentration (MIC), E. Coli. Conditions: Escherichia coli, 48 h, Tryptic Soy Broth, 37° C., two days. The protocol:
as §1, §2

A further test concerns Candida albicans. Kind of test: Minimum Inhibitory Concentration (MIC), Candida albicans. Conditions: 120 h. The protocol: as §1, §2
Where [1] appears, read: Sabouraud Dextrose Broth, read-out: MIC.
Setting [2] is: Aspergillins niger, Sabouraud Dextrose Broth, 28° C., seven days (molds), read-out: MIC.
Where [3] appears, read: Sabouraud Dextrose Broth, 37° C., five days (yeast), read-out: MIC.

Regarding `On1c(-c2ccccc2)cn(-c2ccccc2)c1=S` [Compound 1, 3,5-diphenyl-1-hydroxy-1,2-dihydroimidazole-2-thione], the minimal inhibitory concentration (MIC) is 16 µg/mL (≈ 59.6 µM) against Fusarium; 256 µg/mL (≈ 954 µM) in the test with S. aureus; 2 µg/mL (≈ 7.45 µM) in the test on Aureobasidium pullulans (setting [1]); 8 µg/mL (≈ 29.8 µM) with Aspergillins niger (setting [2]); 64 µg/mL (≈ 239 µM) in the test on E. Coli; 2 µg/mL (≈ 7.45 µM) in the test on Candida albicans (setting [3]).
Turning to `COc1ccc(-n2cc(-c3ccccc3)n(O)c2=S)cc1` [Compound 2, 3-(p-methoxyphenyl)-5-phenyl-1-hydroxy-1,2-dihydroimidazole-2-thione], the MIC came to 1020 µg/mL (≈ 3430 µM) against Fusarium; 2050 µg/mL (≈ 6860 µM) in the test on S. aureus; 8 µg/mL (≈ 26.8 µM) in the test on Aureobasidium pullulans (setting [1]); 64 µg/mL (≈ 215 µM) with Aspergillins niger (setting [2]); 32 µg/mL (≈ 107 µM) in the test on E. Coli; 4 µg/mL (≈ 13.4 µM) in the test with Candida albicans (setting [3]).
As for `COc1ccc(-c2cn(-c3ccccc3)c(=S)n2O)cc1` [Compound 3, 5-(p-Methoxyphenyl)-3-phenyl-1-hydroxy-1,2-dihydroimidazole-2-thione], the minimal inhibitory concentration (MIC) against Fusarium amounted to 512 µg/mL (≈ 1720 µM); against S. aureus it was 32 µg/mL (≈ 107 µM); in the test with Aureobasidium pullulans (setting [1]) it was 16 µg/mL (≈ 53.6 µM); with Aspergillins niger (setting [2]), 512 µg/mL (≈ 1720 µM); in the test with E. Coli it was 32 µg/mL (≈ 107 µM); in the test with Candida albicans (setting [3]) it was 2 µg/mL (≈ 6.7 µM).
Regarding `[O-][n+]1ccccc1S` [Pyrithione, sodium salt, sodium pyrithione, reference compound], the minimum inhibitory concentration (MIC) against Fusarium was in the range of 64 to 128 µg/mL; with S. aureus it was 4 to 8 µg/mL; against Aureobasidium pullulans, 2 to 32 µg/mL; against Aspergillins niger it was 32 to 128 µg/mL; in the test on E. Coli it was 8 to 32 µg/mL; against Candida albicans it was 4 to 16 µg/mL.

The values above are taken from US5283271A, “3,5-diphenyl or substituted 3,5-diphenyl-1-hydroxy-1,2-dihydroimidazole-2-thiones” (Olin Corporation, priority 1992, dated 1994).
